For ten molecules, GI50 and TGI results are on record in PubChem BioAssay (NCI).

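Each compound was tested at five concentrations against cells in 96-well plates for 48 hours. At the GI50, growth is halved. The concentration for full growth arrest is given as TGI.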 Where only a bound is given, the exact number is not on record here.

Test systems include RPMI-8226 leukemia; UACC-62 melanoma; SW-620 colon; EKVX NSCLC; SK-MEL-28 melanoma; NCI-H460 lung; OVCAR-4 ovarian; HCT-15 colon; K-562 leukemia; SK-OV-3 ovarian.
Experiment in all cases: growth of human tumour cells (NCI), 48 h

As for `O=c1[nH]ccc2nc(N3CCC(O)CC3)nc(Nc3cccc(C(F)(F)F)c3)c12`, the GI50 was 2.95 µM with RPMI-8226 leukemia; 1.84 µM with UACC-62 melanoma; 1.91 µM with SW-620 colon; 2.85 µM in the test with EKVX NSCLC; 4.63 µM in the test on SK-MEL-28 melanoma; 1.62 µM with NCI-H460 lung. The GI50 was 1.73 µM in the test on OVCAR-4 ovarian, 0.543 µM with HCT-15 colon, 3.14 µM with K-562 leukemia and 0.486 µM in the test on SK-OV-3 ovarian. In addition, the TGI with RPMI-8226 leukemia was found to be 92 µM; with UACC-62 melanoma, 6.95 µM; in the test on SW-620 colon, 12.9 µM; in the test with EKVX NSCLC, 12.1 µM; with SK-MEL-28 melanoma it was 17.4 µM; with NCI-H460 lung it was 15 µM. For the same molecule, the TGI in the test with OVCAR-4 ovarian was 36.4 µM; in the test on HCT-15 colon it was 31.6 µM; with K-562 leukemia, > 100 µM; with SK-OV-3 ovarian, > 100 µM.

On to `Nc1nc(=S)[nH]c(C(=O)Nc2ccc(Cl)c(Cl)c2)c1-c1ccc(Cl)cc1`, for which the TGI in the test on RPMI-8226 leukemia, with UACC-62 melanoma, with SW-620 colon, in the test on EKVX NSCLC, with SK-MEL-28 melanoma and in the test with NCI-H460 lung was > 100 µM throughout. The TGI in the test on OVCAR-4 ovarian, with HCT-15 colon, with K-562 leukemia and in the test with SK-OV-3 ovarian was > 100 µM throughout.

`c1cc(OCCN2CCCCC2)ccc1CNc1ccc2nc(CCC3CCCCC3)[nH]c2c1`: the GI50 was 1.49 µM in the test with RPMI-8226 leukemia; 1.95 µM with UACC-62 melanoma; 1.82 µM in the test with SW-620 colon; 1.99 µM in the test with EKVX NSCLC; 1.94 µM in the test on NCI-H460 lung; 2.8 µM with OVCAR-4 ovarian. Also, the GI50 is 1.58 µM in the test with HCT-15 colon, 0.852 µM with K-562 leukemia and 2.07 µM with SK-OV-3 ovarian. Further, the TGI with RPMI-8226 leukemia worked out at 3.71 µM; with UACC-62 melanoma, 3.47 µM; with SW-620 colon it was 3.84 µM; in the test with EKVX NSCLC, 6.19 µM; in the test on NCI-H460 lung, 3.97 µM; in the test on OVCAR-4 ovarian, 12.3 µM. The TGI amounted to 3.89 µM in the test with HCT-15 colon, 3.6 µM with K-562 leukemia and 4.18 µM in the test with SK-OV-3 ovarian.

Take `COc1cc(C(=O)C/C(CCC(=O)Nc2ccc(Cl)cc2C)=N/NC(=O)C(N)=O)ccc1O`: the TGI with RPMI-8226 leukemia, in the test on UACC-62 melanoma, in the test with SW-620 colon, with EKVX NSCLC, in the test with NCI-H460 lung and in the test with OVCAR-4 ovarian was > 100 µM in each case. The TGI in the test on HCT-15 colon, in the test on K-562 leukemia and in the test with SK-OV-3 ovarian was > 100 µM in each case.

On to `COC1OC(C)C(O)CC1OS(=O)(=O)c1ccc(C)cc1` (centres undefined), for which the TGI in the test with RPMI-8226 leukemia, with UACC-62 melanoma, in the test on SW-620 colon, in the test with EKVX NSCLC, in the test with SK-MEL-28 melanoma and in the test with NCI-H460 lung was > 100 µM in each case. For the same molecule, the TGI in the test with OVCAR-4 ovarian, with HCT-15 colon, in the test with K-562 leukemia and in the test with SK-OV-3 ovarian was > 100 µM each time.

Take `CCOc1ccc(Nc2nc(-c3ccc4c(c3)NC(=O)CO4)cs2)cc1`: the GI50 in the test with RPMI-8226 leukemia was 14.9 µM; in the test with UACC-62 melanoma, 6.94 µM; in the test with SW-620 colon, 19.6 µM; with EKVX NSCLC, 6.59 µM; with SK-MEL-28 melanoma it was 4.29 µM; with NCI-H460 lung it was 4.37 µM. In addition, the GI50 is 3.51 µM in the test with OVCAR-4 ovarian, 4.74 µM with HCT-15 colon, 4.86 µM in the test with K-562 leukemia and 32.5 µM in the test on SK-OV-3 ovarian. In addition, the TGI was > 100 µM with RPMI-8226 leukemia; 23.5 µM in the test with UACC-62 melanoma; > 100 µM in the test with SW-620 colon; > 100 µM with EKVX NSCLC; 19.6 µM in the test with SK-MEL-28 melanoma; > 100 µM in the test with NCI-H460 lung. Besides, the TGI with OVCAR-4 ovarian, in the test with HCT-15 colon, with K-562 leukemia and with SK-OV-3 ovarian was > 100 µM throughout.

As for `C1CCN(C2OC3C(COC3N3CCCCC3)OC2OC2CCO[C@@H]2N2CCCCC2)CC1` (some centres undefined), the TGI in the test on RPMI-8226 leukemia was > 100 µM; with UACC-62 melanoma it was 41.8 µM; with SW-620 colon it was > 100 µM; in the test on EKVX NSCLC, > 100 µM; with SK-MEL-28 melanoma, > 100 µM; with NCI-H460 lung, > 100 µM. Also, the TGI in the test on OVCAR-4 ovarian, in the test with HCT-15 colon, in the test on K-562 leukemia and in the test on SK-OV-3 ovarian was > 100 µM throughout.

On to `O=C(O)CC12C3C4C5C3C1C5C42` (centres undefined), for which the TGI in the test on RPMI-8226 leukemia, in the test with UACC-62 melanoma, in the test with SW-620 colon, with EKVX NSCLC, in the test with SK-MEL-28 melanoma and in the test on NCI-H460 lung was > 100 µM in each case. Further, the TGI with OVCAR-4 ovarian, with HCT-15 colon, in the test on K-562 leukemia and in the test on SK-OV-3 ovarian was > 100 µM throughout.

Take `COc1ccc(C2=C(c3ccc(OC)c(OC)c3)C(=O)OC2)cc1`: the GI50 in the test on RPMI-8226 leukemia is 0.0497 µM; in the test with UACC-62 melanoma, < 0.01 µM; in the test on EKVX NSCLC, 1.95 µM; with OVCAR-4 ovarian, > 58.4 µM; with HCT-15 colon it was < 0.01 µM; in the test on K-562 leukemia, < 0.01 µM. Further, the TGI is 0.329 µM in the test with RPMI-8226 leukemia; 13.2 µM in the test with UACC-62 melanoma; > 100 µM in the test on SW-620 colon; > 100 µM in the test on EKVX NSCLC; > 100 µM in the test with SK-MEL-28 melanoma; > 100 µM in the test with NCI-H460 lung. Moreover, the TGI in the test with OVCAR-4 ovarian is > 100 µM; in the test with HCT-15 colon, 28.6 µM; with SK-OV-3 ovarian, > 100 µM.

Take `COc1cc2cc(C(=O)Nc3cc(N)c4ccccc4c3CCCl)[nH]c2c(OC)c1OC`: the GI50 with RPMI-8226 leukemia was < 0.021 µM; in the test with UACC-62 melanoma, 0.0717 µM; in the test with SW-620 colon, 0.016 µM; in the test with EKVX NSCLC, 0.0993 µM; in the test on SK-MEL-28 melanoma, 0.0923 µM; in the test on NCI-H460 lung, 0.00913 µM. For the same molecule, the GI50 is 0.0733 µM in the test with OVCAR-4 ovarian, 0.0382 µM with HCT-15 colon, 0.0466 µM in the test on K-562 leukemia and 0.0603 µM with SK-OV-3 ovarian. Besides, the TGI was 0.189 µM in the test with RPMI-8226 leukemia; 0.154 µM in the test on UACC-62 melanoma; > 18.3 µM with SW-620 colon; 0.517 µM in the test on EKVX NSCLC; 0.0396 µM in the test with NCI-H460 lung; 0.325 µM in the test on OVCAR-4 ovarian. Further, the TGI in the test with K-562 leukemia was 2.5 µM.
